# Test results taken from ChEMBL document CHEMBL1150180, “Studies on Cytotoxic Constituents in Pericarps of Mallotus japonicus, V. Three New Phloroglucinol Derivatives, Butyrylmallotochromanol, Isobutyrylmallotochromanol, and Mallotojaponol” (1990).
# Tested on: KB
# Test: Cytotoxicity against human KB cells
# Format: functional
# Conditions: read-out: ED50 (the source's name)
row,Structure (SMILES),EC50 [µg/mL]
1,CCCC(=O)c1c(O)c(Cc2c(O)c(C(C)=O)c(O)c(C)c2OC)c(O)c2c1OC(C)(C)C(O)C2 (configuration not stated) [BUTYRYLMALLOTOCHROMANOL],13.5
2,COc1c(C)c(OC(C)=O)c(C(C)=O)c(OC(C)=O)c1Cc1c(OC(C)=O)c(CC(OC(C)=O)C(C)(C)OC(C)=O)c(OC(C)=O)c(C(C)=O)c1OC(C)=O (configuration not stated),22.5
3,COc1c(C)c(OC(C)=O)c(C(C)=O)c(OC(C)=O)c1Cc1c(OC(C)=O)c2c(c(C(=O)C(C)C)c1OC(C)=O)OC(C)(C)C(OC(C)=O)C2 (configuration not stated),4.5
4,CCCC(=O)c1c(OC(C)=O)c(Cc2c(OC)c(C)c(OC(C)=O)c(C(C)=O)c2OC(C)=O)c(OC(C)=O)c2c1OC(C)(C)C(OC(C)=O)C2 (configuration not stated),2.8
5,COc1c(C)c(O)c(C(C)=O)c(O)c1Cc1c(O)c(CC(O)C(C)(C)O)c(O)c(C(C)=O)c1O (configuration not stated) [MALLOTOJAPONOL],22
6,COc1c(C)c(O)c(C(C)=O)c(O)c1Cc1c(O)c2c(c(C(=O)C(C)C)c1O)OC(C)(C)C(O)C2 (configuration not stated) [ISOBUTYRYLMALLOTOCHROMANOL],14.6
7,COc1c(C)c(O)c(C(C)=O)c(O)c1Cc1c(O)c2c(c(C(C)=O)c1O)OC(C)(C)C(O)C2 (configuration not stated) [MALLOTOCHROMANOL],21
